According to PMC12051030, “Identification of inhibitors of the Salmonella FraB deglycase, a drug target” (FEBS Open Bio, 2025):
Like-named read-outs stand apart in the source and are kept apart here.

Target: His6‐FraB (Salmonella FraB deglycase) (Salmonella enterica subsp. enterica serovar Typhimurium, UniProt Q8ZLD0)
Assay: FraB-G6PD coupled assay, Michaelis–Menten analysis for K I and mode of inhibition
Assay type: biochemical
Conditions: for change of IC50 values with increasing [S]/K m: 'this trend' = IC50 does not vary with [S]/K m, change evident only from 0.2 to 1.6× [S]/K m; for slope in plots of 1/IC50 vs. v o/V max: Fig. S12; for K IU/K IC ratio: average (±SE), from 1/IC50 versus v o/V max plots; for mode of inhibition: kinetic analyses (Lineweaver‐Burk, α′ vs [I], IC50 vs [S]/K m, 1/IC50 vs v o/V max)
Experimental: To determine the K I of each inhibitor, 29 μL of master mix was added to two rows of a 384‐well Greiner plate, using a single‐channel pipette, and incubated at 20 °C for 20 min. A 12‐channel pipette was then used to transfer and mix 1 μL of varying [6‐P‐F‐Asp] to all 48 wells. The final reaction (30 μL) consisted of 25 mM HEPES pH 8.0 at 20 °C, 5 mM MgCl2, 0.1 mM EGTA, 0.5 mM NAD^+, 1 mU G6PD, 100 nM His6‐FraB, varying (6‐P‐F‐Asp) (between 8 and 12 concentrations), and varying [inhibitor] (between three and five concentrations) in 10% (v/v) DMSO. NADH fluorescence was monitored every 10 s for 10 min total on a SPARK® multi‐mode multiplate reader (Tecan), as described above, and plotted against time. Slopes of the linear range of each curve were converted to initial velocities, as described above, that were then plotted against [6‐P‐F‐Asp]. A hyperbolic curve was then fitted to the data to obtain the k cat and K m values according to the formula: v o = (V max × [S])/(K m + [S]).
To determine the correlation between the observed and expected initial velocities (Fig. S5A), these values were exported from Kaleidagraph, plotted against one another, and a curve was fit using the formula: y = mx + b. The differences between observed and expected initial velocities (residuals) were then depicted as box‐and‐whisker plots (Fig. S5B). Lineweaver‐Burk plots were generated by graphing 1/v o versus 1/[S] and curves were fit to the data with Kaleidagraph using the formula: 1/v o = (Km/V max).(1/[S]) + (1/V max). The k cat and K m parameters were then converted into α′ values by dividing the k cat of the control (no inhibitor) by either itself (α′= 1) or the k cat of test samples with variable [inhibitor]. Those α′ values were plotted against [inhibitor] and K I values were determined from the equation α = 1 + [I]/K I.
The initial velocities used to generate the Michaelis–Menten plots were also employed to obtain the IC50 vs [S]/K m plots. For a given [S], initial velocities were converted into relative activities and plotted versus [inhibitor]. […] The IC50 values determined from the IC50 vs [S]/K m plots were then used to plot 1/IC50 versus v o/V max. A curve was fit to the data using the formula: y = mx + b. The Y‐intercept of the 1/IC50 versus v o/V max plot is equal to 1/K IC, and the slope, for mixed inhibitors, is equal to 1/K IU – 1/K IC. […] Data analyses were performed as described above (see Tables S1–S7 for curve‐fit errors and goodness‐of‐fit values).

[1] = Trial 1, 6-P-F-Asp 7.38 µM, S/Km 0.175714, unit from Fig. S11 axis, read-out: IC50 (IC50 versus [S]/Km plots)
[2] = Trial 1, 6-P-F-Asp 15.7 µM, S/Km 0.37381, unit from Fig. S11 axis, read-out: IC50 (IC50 versus [S]/Km plots)
[3] = Trial 1, 6-P-F-Asp 31.3 µM, S/Km 0.745238, unit from Fig. S11 axis, read-out: IC50 (IC50 versus [S]/Km plots)
[4] = Trial 1, 6-P-F-Asp 62.5 µM, S/Km 1.488095, unit from Fig. S11 axis, read-out: IC50 (IC50 versus [S]/Km plots)
[5] = Trial 1, 6-P-F-Asp 125 µM, S/Km 2.97619, unit from Fig. S11 axis, read-out: IC50 (IC50 versus [S]/Km plots)
[6] = Trial 1, 6-P-F-Asp 250 µM, S/Km 5.952381, unit from Fig. S11 axis, read-out: IC50 (IC50 versus [S]/Km plots)
[7] = Trial 1, 6-P-F-Asp 500 µM, S/Km 11.90476, unit from Fig. S11 axis, read-out: IC50 (IC50 versus [S]/Km plots)
[8] = Trial 1, 6-P-F-Asp 750 µM, S/Km 17.85714, unit from Fig. S11 axis, read-out: IC50 (IC50 versus [S]/Km plots)
[9] = Trial 1, 6-P-F-Asp 1000 µM, S/Km 23.80952, unit from Fig. S11 axis, read-out: IC50 (IC50 versus [S]/Km plots)
[10] = Trial 1, 6-P-F-Asp 2000 µM, S/Km 47.61905, unit from Fig. S11 axis, read-out: IC50 (IC50 versus [S]/Km plots)
[11] = Trial 1, 6-P-F-Asp 3000 µM, S/Km 71.42857, unit from Fig. S11 axis, read-out: IC50 (IC50 versus [S]/Km plots)
[12] = Trial 2, 6-P-F-Asp 7.38 µM, S/Km 0.175714, unit from Fig. S11 axis, read-out: IC50 (IC50 versus [S]/Km plots)
[13] = Trial 2, 6-P-F-Asp 15.7 µM, S/Km 0.37381, unit from Fig. S11 axis, read-out: IC50 (IC50 versus [S]/Km plots)
[14] = Trial 2, 6-P-F-Asp 31.3 µM, S/Km 0.745238, unit from Fig. S11 axis, read-out: IC50 (IC50 versus [S]/Km plots)
[15] = Trial 2, 6-P-F-Asp 62.5 µM, S/Km 1.488095, unit from Fig. S11 axis, read-out: IC50 (IC50 versus [S]/Km plots)
[16] = Trial 2, 6-P-F-Asp 125 µM, S/Km 2.97619, unit from Fig. S11 axis, read-out: IC50 (IC50 versus [S]/Km plots)
[17] = Trial 2, 6-P-F-Asp 250 µM, S/Km 5.952381, unit from Fig. S11 axis, read-out: IC50 (IC50 versus [S]/Km plots)
[18] = Trial 2, 6-P-F-Asp 500 µM, S/Km 11.90476, unit from Fig. S11 axis, read-out: IC50 (IC50 versus [S]/Km plots)
[19] = Trial 2, 6-P-F-Asp 750 µM, S/Km 17.85714, unit from Fig. S11 axis, read-out: IC50 (IC50 versus [S]/Km plots)
[20] = Trial 2, 6-P-F-Asp 1000 µM, S/Km 23.80952, unit from Fig. S11 axis, read-out: IC50 (IC50 versus [S]/Km plots)
[21] = Trial 2, 6-P-F-Asp 2000 µM, S/Km 47.61905, unit from Fig. S11 axis, read-out: IC50 (IC50 versus [S]/Km plots)
[22] = Trial 2, 6-P-F-Asp 3000 µM, S/Km 71.42857, unit from Fig. S11 axis, read-out: IC50 (IC50 versus [S]/Km plots)
[23] = from Michaelis–Menten analysis of FraB at different inhibitor concentrations, average and standard error from two measurements, read-out: K I

His6‐FraB (Salmonella FraB deglycase), sequence (Q8ZLD0 entry or part of it): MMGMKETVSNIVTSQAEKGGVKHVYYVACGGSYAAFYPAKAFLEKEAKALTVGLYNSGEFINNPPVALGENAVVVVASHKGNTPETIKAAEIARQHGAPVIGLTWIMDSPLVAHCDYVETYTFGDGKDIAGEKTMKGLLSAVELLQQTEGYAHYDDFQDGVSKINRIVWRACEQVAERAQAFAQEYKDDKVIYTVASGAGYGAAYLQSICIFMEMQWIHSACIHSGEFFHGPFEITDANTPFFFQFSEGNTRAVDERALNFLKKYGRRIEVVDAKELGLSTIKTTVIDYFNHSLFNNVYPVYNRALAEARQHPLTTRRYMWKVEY

Row | SMILES | change of IC50 values with increasing [S]/K m | slope in plots of 1/IC50 vs. v o/V max | IC50 [1] [µM] | IC50 [2] [µM] | IC50 [3] [µM] | IC50 [4] [µM] | IC50 [5] [µM] | IC50 [6] [µM] | IC50 [7] [µM] | IC50 [8] [µM] | IC50 [9] [µM] | IC50 [10] [µM] | IC50 [11] [µM] | IC50 [12] [µM] | IC50 [13] [µM] | IC50 [14] [µM] | IC50 [15] [µM] | IC50 [16] [µM] | IC50 [17] [µM] | IC50 [18] [µM] | also measured
1 | O=c1[nH][nH]c(=S)n1Cc1ccccc1 [1533:K12, 4‐benzyl‐5‐sulfanylidene‐1,2,4‐triazolidin‐3‐one] | modest decrease | weakly positive | 26.2 | 24.1 | 18.5 | 18.3 | 18.1 | 19.6 | 18.7 | 20.1 | 16.7 | 18.6 | 21.2 | 24.9 | 24.7 | 26.5 | 25.9 | 24 | 23.8 | 21.8 | IC50 [19]: 20.5 µM; IC50 [20]: 21.1 µM; IC50 [21]: 20.8 µM; IC50 [22]: 20.7 µM; K IU/K IC ratio: 0.75 ± 0.05; Ki [23]: 12 ± 1 µM; Ki (independent trial shown in Fig. S11 panels A-L, read-out: KI from α′ vs [I] plot): 13 µM; mode of inhibition: mixed‐type uncompetitive; IC50 (single trial shown in Fig. 5, read-out: IC50, mean and standard deviation of all IC50 values in IC50 vs [S]/Km plot): 23 ± 2 µM; Ki (single trial shown in Fig. 5, read-out: KI from α′ vs [I] plot): 11 µM
2 | O=c1sn(-c2ccccc2C(F)(F)F)c(=O)n1CC1CC1 [1524:G12, 4‐(cyclopropylmethyl)‐2‐[2‐(trifluoromethyl)phenyl]‐1,2,4‐thiadiazolidine‐3,5‐dione] | exhibit this trend | no | 1.08 | 1.39 | 1.54 | 1.44 | 1.55 | 1.47 | 1.59 | 1.51 | 1.36 | 1.44 | 1.65 | 1.91 | 1.49 | 1.54 | 1.64 | 1.36 | 1.27 | 1.41 | IC50 [19]: 1.42 µM; IC50 [20]: 1.44 µM; IC50 [21]: 1.37 µM; IC50 [22]: 1.66 µM; K IU/K IC ratio: 0.9 ± 0.1; Ki [23]: 1 µM; mode of inhibition: pure noncompetitive inhibitors
3 | Cc1cccc(Cl)c1-n1sc(=O)n(CC2CC2)c1=O [1524:E12, 2‐(2‐chloro‐6‐methylphenyl)‐4‐(cyclopropylmethyl)‐1,2,4‐thiadiazolidine‐3,5‐dione] | exhibit this trend | no | 5.182 | 4.4596 | 6.2505 | 5.0417 | 4.4301 | 4.497 | 4.5819 | 4.2959 | 4.7019 | 4.852 | 5.5036 | 4.2249 | 5.1146 | 4.8438 | 5.1187 | 5.0178 | 5.2509 | 4.9663 | IC50 [19]: 4.9173 µM; IC50 [20]: 5.0782 µM; IC50 [21]: 5.2035 µM; IC50 [22]: 5.7824 µM; K IU/K IC ratio: 0.95 ± 0.05; Ki [23]: 4 µM; mode of inhibition: pure noncompetitive inhibitors; IC50, mean and standard deviation of all IC50 values in IC50 vs [S]/Km plot (trial shown in Fig. S11 panels M-X): 5 ± 0.4 µM; IC50, mean and standard deviation of all IC50 values in IC50 vs [S]/Km plot (trial shown in Fig. S11 panels Y-AJ): 5 ± 0.6 µM
